{"source": "patent US20230027472A1", "about": "“TARGETING P73 FOR CANCERS RESISTANT TO BH3 MIMETICS” (BOARD OF REGENTS, THE UNIVERSITY OF TEXAS SYSTEM, priority 2019, published 2023)", "format_in_all_cases": "cell-based", "key": {"OCI-AML3 cells [1]": {"test_system": "OCI-AML3 cells", "assay": "Annexin V staining and live cell counting by flow cytometry in OCI-AML3 cells with lentiviral p73 knockdown", "procedure": "Apoptosis induction was measured by annexin V staining (Annexin V positive cells (%)), and live cell numbers were measured by counting beads by flow cytometry."}, "TAp73 and ΔNp73": {"test_system": "TAp73 and ΔNp73", "assay": "TAp73 and ΔNp73 levels in AML cells after (R)-2HG treatment", "source_text": "Results The inventors determined copy numbers of ΔNp73 and TAp73 mRNA levels in 78 AML samples including 31 de novo AML using droplet digital PCR (ddPCR), which allows to determine the absolute quantity of the isoforms expressed, and investigated their clinical and biological relevance. ΔNp73 and TAp73 expression was detected in 93.6% and 98.7% of AML samples at variable levels (mean±SEM, 10.6±5.0, and 106.6±33.7 copies/μL, for ΔNp73 and TAp73, respectively). ΔNp73 and TAp73 mRNA levels were highly correlated (R^2=0.72, P<0.0001). […] However, AML with IDH1/2 mutations had 8.5-fold lower ΔNp73 expression than those with wild-type IDH1/2 (1.8±0.8 vs 15.4±7.7 copies/μL, P=0.0069), with a similar trend for TAp73 (49.0±20.3 vs 138.6±51.4 copies/μL, P=0.056). […] To further explore the regulation of TP73 isoforms, the inventors used MDM2 inhibitor Nutlin-3a to induce p53 which is a transcriptional inducer of ΔNp73. […] AML cells with IDH1/2 mutations are more dependent on Bcl-2 than those without (Chan, Nat Med 2015)."}, "AML cells": {"test_system": "AML cells", "assay": "Susceptibility of AML cells to Bcl-2 inhibitor ABT-199 (VEN) after (R)-2HG treatment", "conditions": "AML cells treated with 2HG"}, "MOLM-13 cells [2]": {"test_system": "MOLM-13 cells", "assay": "Sensitivity of MOLM-13 parent and ABT-199 resistant (ABTR) cells to ABT-199, annexin V and live cell numbers", "conditions": "MOLM-13 ABTR cells versus parent", "procedure": "(§1) In FIG. 2A, there are immunoblot images of two AML cell lines (MOLM-13 and MV4;11 cells) that acquired ABT-199 resistance (ABTR) through long-term exposure to continuous treatment of ABT-199. Parental control cells (Parent) are used for comparison. Histone H3 (H3) serves as a loading control, and relative protein levels were measured as ratios of target proteins and H3 through densitometry. […] In FIG. 2B, there is shown sensitivity of MOLM-13 and MV4;11 parent and ABTR cells to ABT-199. Apoptosis induction was measured by annexin V staining (Annexin V positive cells (%)), and live cell numbers were measured by counting beads by flow cytometry."}, "MV4;11 cells": {"test_system": "MV4;11 cells", "assay": "Sensitivity of MV4;11 parent and ABT-199 resistant (ABTR) cells to ABT-199, annexin V and live cell numbers", "conditions": "MV4;11 ABTR cells versus parent", "procedure": "as §1"}, "MOLM-13 cells [3]": {"test_system": "MOLM-13 cells", "assay": "Sensitivity to ABT-199 in MOLM-13 cells with overexpression of p73 isoforms/variants, annexin V and live cell numbers", "procedure": "In FIG. 3A, there are immunoblot images of different p73 N-terminal isoforms (TA and ΔN) and C-terminal variants (α, β and γ) protein levels. MOLM13 cells with overexpression of those p73 isoforms/variants was generated by lentiviral transfection. β-actin serves as a loading control. Successful overexpression of p73 isoforms/variants in MOLM-13 cells, which are originally sensitive to ABT-199. […] Apoptosis induction was measured by annexin V staining (Annexin V positive cells (%)), and live cell numbers were measured by counting beads by flow cytometry. […] A p73 isoform ΔNp73γ overexpression induced resistance to ABT-199, indicating a novel resistance mechanism by p73 isoforms/variants to ABT-199 in AML cells."}, "OCI-AML3 cells [4]": {"test_system": "OCI-AML3 cells", "assay": "Apoptosis induction by Nutlin-3a (specific annexin V induction) in OCI-AML3 cells with vector control or p73 knockdown", "conditions": "5 μM Nutlin-3a", "source_text": "(§2) To further explore the regulation of TP73 isoforms, the inventors used MDM2 inhibitor Nutlin-3a to induce p53 which is a transcriptional inducer of ΔNp73."}, "p73": {"test_system": "p73", "assay": "p73 protein levels after MDM2 inhibition in AML cells", "source_text": "as §2"}}, "data": [{"smiles": "Nc1ncn([C@@H]2O[C@H](CO)[C@@H](O)[C@H]2O)c(=O)n1", "note": "[5′-azacitidine]", "values": [{"measurement": "apoptosis induction (Annexin V positive cells), p73 knockdown versus control", "setting": "OCI-AML3 cells [1]; p73 knockdown", "result": "enhances apoptosis induction"}]}, {"smiles": "O=C(O)CC[C@@H](O)C(=O)O", "note": "[(R)-2HG]", "values": [{"measurement": "TAp73 and ΔNp73 levels", "setting": "TAp73 and ΔNp73", "result": "reduced both TAp73 and ΔNp73"}, {"measurement": "susceptibility to the Bcl-2 inhibitor ABT-199 (VEN)", "setting": "AML cells", "result": "increased susceptibility"}]}, {"smiles": "CC1(C)CCC(CN2CCN(c3ccc(C(=O)NS(=O)(=O)c4ccc(NCC5CCOCC5)c([N+](=O)[O-])c4)c(Oc4cnc5[nH]ccc5c4)c3)CC2)=C(c2ccc(Cl)cc2)C1", "note": "[ABT-199]", "values": [{"measurement": "sensitivity to VEN", "setting": "OCI-AML3 cells [1]; lentiviral knockdown of p73", "result": "enhanced sensitivity"}, {"measurement": "apoptosis induction (Annexin V positive cells), p73 knockdown versus control", "setting": "OCI-AML3 cells [1]; p73 knockdown", "result": "greater"}, {"measurement": "live cell numbers, p73 knockdown versus control", "setting": "OCI-AML3 cells [1]; p73 knockdown", "result": "superior reduction of live cell numbers"}, {"measurement": "sensitivity to ABT-199 (apoptosis, live cell numbers)", "setting": "MOLM-13 cells [2]", "result": "clearly show resistance"}, {"measurement": "sensitivity to ABT-199 (apoptosis, live cell numbers)", "setting": "MV4;11 cells", "result": "clearly show resistance"}, {"measurement": "sensitivity to ABT-199 (apoptosis, live cell numbers)", "setting": "MOLM-13 cells [3]; MOLM-13 cells with TAp73α overexpression", "result": "still sensitive"}, {"measurement": "sensitivity to ABT-199 (apoptosis, live cell numbers)", "setting": "MOLM-13 cells [3]; MOLM-13 cells with TAp73α overexpression, listed as VEN", "result": "minimally increased VEN-induced apoptosis"}, {"measurement": "sensitivity to ABT-199 (apoptosis, live cell numbers)", "setting": "MOLM-13 cells [3]; MOLM-13 cells with vector control", "result": "still sensitive"}, {"measurement": "sensitivity to ABT-199 (apoptosis, live cell numbers)", "setting": "MOLM-13 cells [3]; MOLM-13 cells with ΔNp73β overexpression", "result": "still sensitive"}, {"measurement": "sensitivity to ABT-199 (apoptosis, live cell numbers)", "setting": "MOLM-13 cells [3]; MOLM-13 cells with ΔNp73γ overexpression", "result": "resistant"}, {"measurement": "sensitivity to ABT-199 (apoptosis, live cell numbers)", "setting": "MOLM-13 cells [3]; MOLM-13 cells with ΔNp73γ overexpression, listed as VEN", "result": "striking resistance"}]}, {"smiles": "COc1ccc(C2=N[C@@H](c3ccc(Cl)cc3)[C@@H](c3ccc(Cl)cc3)N2C(=O)N2CCNC(=O)C2)c(OC(C)C)c1", "note": "[Nutlin-3a]", "values": [{"measurement": "specific annexin V induction", "setting": "OCI-AML3 cells [4]; OCI-AML3 cells with Shp73 (knockdown of TAp73 and ΔNp73)", "result": "61.3±5.2", "unit": "%"}, {"measurement": "specific annexin V induction", "setting": "OCI-AML3 cells [4]; OCI-AML3 cells with vector control", "result": "21.9±1.3", "unit": "%"}, {"measurement": "p73 protein levels", "setting": "p73", "result": "increased p73 protein levels"}]}, {"smiles": "CCCCCCCCOC(=O)[C@H](O)CCC(=O)O", "note": "[octyl-(R)-2HG]", "values": [{"measurement": "TAp73 and ΔNp73 levels", "setting": "TAp73 and ΔNp73", "result": "reduced both TAp73 and ΔNp73"}, {"measurement": "susceptibility to the Bcl-2 inhibitor ABT-199 (VEN)", "setting": "AML cells", "result": "increased susceptibility"}]}]}
